The record followed here is paper PMC7576996, “Antiparasitic Behavior of Trifluoromethylated Pyrazole 2-Amino-1,3,4-thiadiazole Hybrids and Their Analogues: Synthesis and Structure-Activity Relationship” (Frontiers in Pharmacology, 2020).

The nature of data set [1]: Cytotoxicity assay in J774A1 macrophages (MTT, 48 h). Type of data set: cell-based. The settings on record: mouse, pH 7.2, J774A1, 50% inhibition of growth. On the procedure:
(§1) All the novel trifluoromethylated pyrazoles derivatives 2a–f, 3a–f, and 4a–f were evaluated against the promastigote form of L. amazonensis and the epimastigote form of T. cruzi. The results are reported as the concentration causing a 50% inhibition in cell growth (IC50). Additionally, the toxicity of compounds was evaluated against two different cell lines: epithelial cell LLCMK2 and macrophages J774A1. The antiproliferative and cytotoxic activities are shown in Table 2 , as well as the calculated selectivity index (SI).
(§2) 2.4. Antiproliferative activity […]
(§3) Cytotoxicity activity was determined in LLCMK2 (epithelial cells of kidney of Macaca
(§4) mulatta) cells and J774A1 macrophages. LLCMK2 (epithelial cells of kidney of Macaca mulatta) cells
(§5) were cultured in Dulbecco’s modified Eagle’s medium (DMEM, pH 7.2) supplemented with 10% FBS
(§6) at 37 °C in a 5% CO2 atmosphere. J774A1 macrophages were cultured in RPMI-1640 (pH 7.2) medium
(§7) supplemented with 10% FBS at 37 °C in a 5% CO2 atmosphere.
(§8) 2.4.2. Dilution of compounds
(§9) Stock solutions of the compounds were prepared in DMSO and then diluted in the respective
(§10) medium. The groups (controls and treated) were tested with DMSO concentrations below 1%, with
(§11) 2.4.3. Antiproliferative assay […]
(§12) 2.4.4. Cytotoxicity assay
(§13) LLCMK2 cells (2.5 × 10^5 cells/mL) suspension was prepared in DMEM medium supplemented
(§14) with 10% FBS and added to 96-well plates. Then, the plates were incubated at 37 °C in a
(§15) CO2 atmosphere for 24h to obtain confluent cell growth. After incubation, cells were treated or not
(§16) with different concentrations of compounds diluted in DMEM for 72 h. Macrophage (5 × 10^5 cells/mL)
(§17) suspension was prepared in RPMI-1640 medium supplemented with 10% FBS and added to 96-well
(§18) plates. Then, the plates were incubated at 37 °C in a CO2 atmosphere for 24h to obtain confluent cell
(§19) growth. After incubation, cells were treated or not with different concentrations of compounds diluted
(§20) in RPMI-1640 for 48h. After treatment, medium was removed and cells were incubated with MTT (2
(§21) mg/mL) for 4h. Then, DMSO was added for solubilization of the formazan and analyzed with a reading
(§22) microplate reader (BIO-TEK PowerWave XS spectrophotometer) at 392 nm. The percentage of viable
(§23) cells was calculated in relation to the control to determine the cytotoxic concentration to 50% of the […]

Data set [2] has as its system promastigote form of Leishmania amazonensis. The data set can be described thus: Antiproliferative assay, promastigote form of Leishmania amazonensis (XTT, 72 h). The note with it: for SI L-M, selectivity index (Macrophages CC50/L. amazonensis IC50): J774A1 vs promastigotes; for SI L-E, selectivity index (Epithelial CC50/L. amazonensis IC50): LLCMK2 vs promastigotes; for IC50: Leishmania amazonensis, promastigote form, 72 h, mean ± standard deviation, read-out: L. amazonensis IC50. Type of data set: cell-based. On the procedure:
as §1
(§24) 2.4. Antiproliferative activity
(§25) Promastigotes forms of Leishmania amazonensis (strain WHOM/ BR/75/JOSEFA) were
(§26) cultured in Warren medium (brain heart infusion, hemin, and folic acid; pH 7.4) supplemented with
(§27) 10% fetal bovine serum (FBS) at 25 °C. Epimastigote forms of Trypanosoma cruzi (Y strain) were
(§28) cultured in LIT medium (liver infusion tryptose; hemim, and folic acid; pH 7.4) supplemented with
as §3, §4, §5, §6, §7, §8, §9, §10
(§29) 2.4.3. Antiproliferative assay
(§30) Promastigote forms (1 × 10^6 parasites/mL) were cultured in 96-well plates in the presence and
(§31) absence of different concentrations of compounds diluted in Warren medium supplemented with 10%
(§32) FBS and incubated for 72h. Epimastigote forms (1 × 10^6 parasites/mL) were cultured in 96 -well plates
(§33) in the presence and absence of different concentrations of compounds diluted in LIT medium
(§34) supplemented with 10% FBS and incubated for 96h. After treatment, the parasites were incu bated with
(§35) a solution of 2,3 -bis (2 -methoxy -4-nitro -5-sulfophenyl) -2H-tetrazolium -5-carboxanilide (XTT; 0.5
(§36) mg/mL) and phenazine methanesulfonate activator (PMS; 0.06 mg/mL) in PBS for 4h. Then, the
(§37) absorbance was read in a microplate reader (Bio Tek - Power Wave XS) at 450 nm. The percentage of
(§38) viable parasites was calculated in relation to the control in order to determine the concentration that
(§39) inhibits 50% of the protozoa (IC 50).
as §12, §13, §14, §15, §16, §17, §18, §19, §20, §21

Data set [3] is described as follows: Cytotoxicity assay in LLCMK2 epithelial cells (MTT, 72 h). Type of data set: cell-based. The note with it: Macaca mulatta, LLCMK2 kidney epithelial cells, pH 7.2, LLCMK2, 50% inhibition of growth. The procedure: as §1, §2, §3, §4, §5, §6, §7, §8, §9, §10, §11, §12, §13, §14, §15, §16, §17, §18, §19, §20, §21, §22, §23
Data set [4] concerns epimastigote form of Trypanosoma cruzi. The data set can be described thus: Antiproliferative assay, epimastigote form of Trypanosoma cruzi (XTT, 96 h). Format: cell-based. The note with it: for SI T-M, selectivity index (Macrophages CC50/T. cruzi IC50): J774A1 vs epimastigotes; for SI T-E, selectivity index (Epithelial CC50/T. cruzi IC50): LLCMK2 vs epimastigotes; for IC50: Trypanosoma cruzi, epimastigote form, 96 h, mean ± standard deviation, read-out: T. cruzi IC50. On the procedure:
as §1, §24, §25, §26, §27, §28, §3, §4, §5, §6, §7, §8, §9, §10, §29, §30, §31, §32, §33, §34, §35, §36, §37, §38, §39, §12, §13, §14, §15, §16, §17, §18, §19, §20, §21

`CSC(N)=NN=Cc1c(C(F)(F)F)nn(-c2ccccc2)c1-c1ccc(Cl)cc1` [3c] showed a melting point of 188.5 °C. This compound also yielded a CC50 at 48 h in data set [1] of 301 ± 3.9 µM. Besides, in data set [2], the “SI L-M, selectivity index (Macrophages CC50/L. amazonensis IC50)” value (“SI L-M, selectivity index” below) turned out to be 9.80; the “SI L-E, selectivity index (Epithelial CC50/L. amazonensis IC50)” value (shortened to “SI L-E, selectivity index”) was 9.68; the IC50 stood at 30.7 ± 2.2 µM. In data set [3], this compound displayed a CC50 at 72 h of 297 ± 6.1 µM. Further, in data set [4], the “SI T-M, selectivity index (Macrophages CC50/T. cruzi IC50)” value (“SI T-M, selectivity index” below) worked out at 8.09; the “SI T-E, selectivity index (Epithelial CC50/T. cruzi IC50)” value (“SI T-E, selectivity index” for short) came to 7.99; the IC50 was 37.2 ± 4.8 µM.
In turn, `CSC(N)=NN=Cc1c(C(F)(F)F)nn(-c2ccccc2)c1-c1ccccc1` [3e] displayed a melting point of 165.65 °C. In data set [1], this compound registered a CC50 at 48 h of 326 ± 4.5 µM. Also, in data set [2], the “SI L-M, selectivity index” value came out at 7.30; the “SI L-E, selectivity index” value is on record as 4.53; the IC50 came to 44.7 ± 5 µM. For the same compound, it took 202 ± 6.2 µM to reach half-maximal cytotoxicity in data set [3] (CC50 at 72 h). Also, in data set [4], the “SI T-M, selectivity index” value is recorded as 5.23; the “SI T-E, selectivity index” value came out at 3.25; the IC50 was found to be 62.4 ± 3.8 µM.
Regarding `Nc1nnc(-c2c(C(F)(F)F)nn(-c3ccccc3)c2-c2ccc([N+](=O)[O-])cc2)s1` [4a, 4-[(2-amino)-1,3,4-thiadiazo-5-yl]-3-trifluoromethyl-5-(4-nitrophenyl)-1-phenyl-1H-pyrazole], the melting point was 236.7 °C. Besides, the midpoint of cytotoxicity in data set [1], the CC50 at 48 h, lay at 285 ± 5.6 µM. In addition, in data set [2], the “SI L-M, selectivity index” value is listed as 14.56; the “SI L-E, selectivity index” value was 10.78; the IC50 turned out to be 19.6 ± 1.5 µM. Besides, it took 211 ± 3.1 µM to reach half-maximal cytotoxicity in data set [3] (CC50 at 72 h). Moreover, in data set [4], the “SI T-M, selectivity index” value came to 9.84; the “SI T-E, selectivity index” value is reported as 7.29; the IC50 was found to be 29 ± 2.7 µM.
In the case of `Nc1nnc(-c2c(C(F)(F)F)nn(-c3ccccc3)c2-c2ccc(F)cc2)s1` [4b, 4-[(2-amino)-1,3,4-thiadiazo-5-yl]-3-trifluoromethyl-5-(4-fluorophenyl)-1-phenyl-1H-pyrazole], the melting point is 243.3 °C. The compound further came in with a CC50 at 48 h in data set [1] of 249 ± 6.2 µM. In data set [2], the “SI L-M, selectivity index” value came to 6.17; the “SI L-E, selectivity index” value is 3.63; the IC50 was 40.4 ± 3.2 µM. Also, the CC50 at 72 h in data set [3] was 146 ± 5.4 µM. Further, in data set [4], the “SI T-M, selectivity index” value was 5.99; the “SI T-E, selectivity index” value was determined as 3.52; the IC50 was 41.6 ± 5.3 µM.
On to `Nc1nnc(-c2c(C(F)(F)F)nn(-c3ccccc3)c2-c2ccc(Cl)cc2)s1` [4c, 4-[(2-amino)-1,3,4-thiadiazo-5-yl]-5-(4-chlorophenyl)-3-trifluoromethyl-1-phenyl-1H-pyrazole], for which the melting point is 224.9 °C. For the same compound, the CC50 at 48 h in data set [1] was 385 ± 5.8 µM. Further, in data set [2], the “SI L-M, selectivity index” value came out at 10.67; the “SI L-E, selectivity index” value was 9.68; the IC50 turned out to be 36.1 ± 2.8 µM. The compound further displayed a CC50 at 72 h in data set [3] of 350 ± 6.1 µM. Further, in data set [4], the “SI T-M, selectivity index” value is 9.51; the “SI T-E, selectivity index” value turned out to be 8.63; the IC50 is 40.5 ± 3.1 µM.
`Nc1nnc(-c2c(C(F)(F)F)nn(-c3ccccc3)c2-c2ccc(Br)cc2)s1` [4d, 4-[(2-amino)-1,3,4-thiadiazo-5-yl]-5-(4-Bromophenyl)-3-trifluoromethyl-1-phenyl-1H-pyrazole] returned a melting point of 239.2 °C. Further, in data set [1], the midpoint of cytotoxicity, the CC50 at 48 h, lay at 147 ± 3.2 µM. Moreover, in data set [2], the “SI L-M, selectivity index” value was 10.01; the “SI L-E, selectivity index” value is 8.17; the IC50 came to 14.7 ± 0.9 µM. In addition, the 50% cytotoxic concentration (CC50) at 72 h in data set [3] amounted to 120 ± 2.5 µM. Besides, in data set [4], the “SI T-M, selectivity index” value stood at 5.51; the “SI T-E, selectivity index” value stood at 4.50; the IC50 was 26.7 ± 1.4 µM.
On to `COc1ccc(-c2c(-c3nnc(N)s3)c(C(F)(F)F)nn2-c2ccccc2)cc1` [4f, 4-[(2-amino)-1,3,4-thiadiazo-5-yl]-3-trifluoromethyl-5-(4-methoxyphenyl)-1-phenyl-1H-pyrazole], for which the melting point turned out to be 239.1 °C. This compound had a CC50 at 48 h in data set [1] of 156 ± 4.1 µM. Also, in data set [2], the “SI L-M, selectivity index” value is on record as 9.14; the “SI L-E, selectivity index” value came out at 7.83; the IC50 was 17.1 ± 1.6 µM. The compound also had a CC50 at 72 h in data set [3] of 134 ± 5.1 µM. Moreover, in data set [4], the “SI T-M, selectivity index” value is recorded as 6.86; the “SI T-E, selectivity index” value was determined as 5.87; the IC50 worked out at 22.8 ± 1.2 µM.
For the compound `O=Cc1c(C(F)(F)F)nn(-c2ccccc2)c1-c1ccc([N+](=O)[O-])cc1` [compound 5, 3-trifluoromethyl-4-formyl-5-(4-nitrophenyl)-1-phenyl-1H-pyrazole], the melting point was in the range of 155.2 to 156.1 °C. For the same compound, the CC50 at 48 h in data set [1] is 245 ± 2.7 µM. Moreover, in data set [2], the “SI L-M, selectivity index” value is listed as 3.35; the “SI L-E, selectivity index” value amounted to 5.76; the IC50 worked out at 73.1 ± 2.8 µM. The CC50 at 72 h in data set [3] stood at 422 ± 12.3 µM. For the same compound, in data set [4], the “SI T-M, selectivity index” value is on record as 3.03; the “SI T-E, selectivity index” value is given as 5.22; the IC50 is 80.8 ± 3.7 µM.
